This assay addresses T1, NLRP3 (Homo sapiens, UniProt Q96P20).
T1 construct: host or cells: PMA-differentiated THP-1 cells
Description: Measurement of IL-1β production in PMA-differentiated THP-1 cells (NLRP3 hIL1B). It is filed as cell-based. As for the experimental part: Measurement of IL-1β Production in PMA-Differentiated THP-1 Cells
THP-1 cells were purchased from the American Type Culture Collection and sub-cultured according to instructions from the supplier. Prior to experiments, cells were cultured in RPMI 1640 containing 10% heat inactivated FBS, penicillin (100 units/ml) and streptomycin (100 μg/ml), and maintained in log phase prior to experimental setup. Prior to the experiment THP-1 were treated with PMA (Phorbol 12-myristate 13-acetate) (10 μg/ml) for 24 hours. The day of the experiment the media was removed and attaching cells were treated with trypsin for 2 minutes, cells were then collected, washed with PBS (phosphate buffer saline), spin down, resuspended in 2% heat inactivated FBS with RPMI at a concentration of 1×10^6 cells/ml, and 100 μl was plated in a 96 well plate. Compounds were dissolved in dimethyl sulfoxide (DMSO) and added to the culture medium to achieve desired concentration (e.g. 100, 30, 10, 3, 1, 0.3 or 0.1 μM). Cells were incubated with compounds for 4 hours. Cell free supernatant was collected and the production of IL-1β was evaluated by ELISA. A vehicle only control was run concurrently with each experiment. Final DMSO concentration was 1%.
Measurement of IL-1β Production in PMA-Differentiated THP-1 Cells (Alternative Procedure)
THP-1 cells were purchased from the American Type Culture Collection and sub-cultured according to instructions from the supplier. Prior to experiments, cells were cultured in RPMI 1640 containing 10% heat inactivated FBS, penicillin (100 units/ml), streptomycin (100 μg/ml), HEPES (10 mM) and sodium pyruvate (1 mM) and maintained in log phase prior to experimental setup. Prior to the experiment, THP-1 cells were treated with PMA (Phorbol 12-myristate 13-acetate) (20 μg/ml) overnight. The day of the experiment, the media was removed and attached cells were treated with trypsin for 2 minutes, cells were then collected, washed with PBS (phosphate buffer saline), pelleted by centrifugation and resuspended in 2% heat inactivated FBS with RPMI at a concentration of 50,000 cells/well in a 384 well plate. Cell free supernatant was collected and the production of IL-1β was evaluated by ELISA. Compounds were dissolved in dimethyl sulfoxide (DMSO) and added to the culture medium to achieve desired concentration (e.g. 100, 30, 10, 3, 1, 0.3 or 0.1 μM). Cells were incubated with compounds for 2 hours. A vehicle only control was run concurrently with each experiment. Final DMSO concentration was 1%.
Measurement of IL-1β Production—hTRF Protocol (Second Alternative Procedure)
Serial dilutions of compounds in DMSO were added to low volume 384 well plates at 100 nl/well using an ECHO 550 acoustic dispenser (Labcyte) to achieve final starting concentration of 10 μM in assay.
THP-1 cells in RPMI (Gibco, 11875) media with 10% FBS at a density of 1×10^6 cell/ml in a T175 flask were treated with a final concentration of phorbol 12-myristate 13-acetate (PMA) (Sigma, P1585) of 50 ng/ml overnight at 37° C. at 5% CO2 for differentiation. Cells were harvested the next day after rinsing well with dPBS using 0.5% trypsin. A cell solution was prepared of 1×10^6 cells/ml for 50,000 cells in 50 μl/well in RPMI media with 2% FBS. Cells were plated using a multichannel pipette onto the compound dilutions in Greiner, 384 well, black clear bottom tissue culture treated plates (781090). The plates were incubated in 37° C. incubator at 5% CO2 for 2 hours.
After the 2 hour incubation, the cell plates were spun in the centrifuge for 5 minutes at 1200 rpm. Using the Felix (CyBio), 8 μl of the supernatant was transferred to 384 well, low volume, white proxy plates. (Perkin Elmer, 6008230). A human IL1beta hTRF kit was used to analyze the supernatant (CISBIO, 62HIL1BPEG). The kit instructions were followed for preparing the IL1Beta standard curve and then the antibodies from the kit were diluted 1:40 rather than 1:20 as kit instructed.
T1 sequence (Q96P20 whole entry): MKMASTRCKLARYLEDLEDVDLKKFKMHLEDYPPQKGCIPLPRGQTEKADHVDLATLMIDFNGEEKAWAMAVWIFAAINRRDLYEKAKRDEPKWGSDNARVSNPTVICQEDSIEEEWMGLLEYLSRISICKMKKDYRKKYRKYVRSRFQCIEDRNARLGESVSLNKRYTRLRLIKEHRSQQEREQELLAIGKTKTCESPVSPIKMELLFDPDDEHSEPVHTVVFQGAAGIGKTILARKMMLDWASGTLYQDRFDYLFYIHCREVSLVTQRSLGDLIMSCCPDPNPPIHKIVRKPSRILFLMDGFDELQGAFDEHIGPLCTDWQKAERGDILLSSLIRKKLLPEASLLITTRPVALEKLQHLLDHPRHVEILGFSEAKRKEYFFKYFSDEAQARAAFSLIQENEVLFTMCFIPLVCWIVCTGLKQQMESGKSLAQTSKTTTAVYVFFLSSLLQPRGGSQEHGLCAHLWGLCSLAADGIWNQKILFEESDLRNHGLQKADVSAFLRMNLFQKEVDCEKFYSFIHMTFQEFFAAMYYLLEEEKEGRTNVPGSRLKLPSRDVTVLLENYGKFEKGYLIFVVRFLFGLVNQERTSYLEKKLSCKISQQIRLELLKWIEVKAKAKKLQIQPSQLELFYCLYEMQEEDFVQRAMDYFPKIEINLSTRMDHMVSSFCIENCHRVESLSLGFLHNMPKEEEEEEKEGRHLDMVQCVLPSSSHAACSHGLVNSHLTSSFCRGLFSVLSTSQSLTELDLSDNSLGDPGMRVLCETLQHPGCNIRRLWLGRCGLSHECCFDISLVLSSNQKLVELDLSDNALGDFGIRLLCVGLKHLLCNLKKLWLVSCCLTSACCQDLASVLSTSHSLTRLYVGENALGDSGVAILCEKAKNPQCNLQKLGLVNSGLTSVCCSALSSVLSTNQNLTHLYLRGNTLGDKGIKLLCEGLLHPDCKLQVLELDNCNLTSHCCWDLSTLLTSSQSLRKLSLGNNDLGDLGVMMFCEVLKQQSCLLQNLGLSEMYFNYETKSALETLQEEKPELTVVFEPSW
On to `Nc1nc(Nc2ccn(CCO)n2)c2ccc(-c3ccn[nH]3)cc2n1` [Example 115], for which the EC50 was 18000 nM. For `COCCCNc1nc(N)nc2cc(-c3ccn[nH]3)ccc12` [Example 94], the midpoint of the response, the EC50, lay at 180 nM. Under `CC(C)(C)Nc1nc(N)nc2cc(-c3ccn[nH]3)ccc12` [Example 180] stands 710 nM. Under `Nc1nc(N[C@H]2CC[C@@H](O)C2)c2ccc(-c3ccn[nH]3)cc2n1` [Example 159] stands 430 nM. Under `Nc1nc(NC2CCCOC2)c2ccc(-c3ccn[nH]3)cc2n1` (centres unmarked) [Example 105] stands 1980 nM; under `Nc1nc(NCC(F)(F)c2ccccn2)c2ccc(-c3ccn[nH]3)cc2n1` [Example 26], 120 nM. Turning to `COc1cc(-c2cc[nH]n2)cc2nc(N)nc(N[C@@H]3CCOC3)c12` [Example 133], the EC50 came out at 650 nM. Against the preceding molecule, the EC50 is about 5.4-fold higher. Next, `COCCNc1nc(N)nc2cc(-c3ccn[nH]3)ccc12` [Example 102]: 210 nM; `Nc1nc(NCCc2cccnc2)c2ccc(-c3ccn[nH]3)cc2n1` [Example 153]: 420 nM. Under `Nc1nc(N[C@H]2CCOC2)c2ccc(-c3ccn[nH]3)cc2n1` [Example 23, (S)-7-(1H-pyrazol-5-yl)-N4-(tetrahydrofuran-3-yl)quinazoline-2,4-diamine] stands 670 nM. Next, `Nc1nc(NCc2ccccn2)c2ccc(-c3ccn[nH]3)cc2n1` [Example 171]: 270 nM; `Nc1nc(Nc2cn[nH]c2)c2ccc(-c3ccn[nH]3)cc2n1` [Example 112]: 240 nM. As for `Nc1nc(N[C@H]2CCCC[C@H]2O)c2ccc(-c3ccn[nH]3)cc2n1` [Example 67], a half-maximal effect (EC50) was put at 2260 nM.

In the case of `Nc1nc(N[C@@H]2CCOC2)c2c(F)cc(-c3cc[nH]n3)cc2n1` [Example 127], it took 1220 nM to reach a half-maximal effect (EC50). Turning to `Cn1cnc(CNc2nc(N)nc3cc(-c4ccn[nH]4)ccc23)n1` [Example 189], the midpoint of the response, the EC50, lay at 1410 nM. This EC50 and that of the molecule before are within 1.5-fold of each other. `CN(C)c1cc(-c2cc[nH]n2)cc2nc(N)nc(NCCCO)c12` [Example 22, 3-((2-amino-5-(dimethylamino)-7-(1H-pyrazol-3-yl)quinazolin-4-yl)amino)propan-1-ol] had an EC50 of 9240 nM. Next, `Nc1nc(N[C@H]2COC[C@@H](O)C2)c2ccc(-c3ccn[nH]3)cc2n1` (single isomer, unassigned) [Example 13]: 1180 nM; `Nc1nc(N[C@H]2C[C@@H](O)C[C@@H]2O)c2ccc(-c3cc[nH]n3)cc2n1` (racemic) [Example 117]: 1560 nM; `Nc1nc(NCc2cnccn2)c2ccc(-c3ccn[nH]3)cc2n1` [Example 52]: 780 nM. `COCC(O)CNc1nc(N)nc2cc(-c3ccn[nH]3)ccc12` (centres unmarked) [Example 72] showed an EC50 of 530 nM. Next, `Nc1nc(N[C@@H]2CCCOC2)c2ccc(-c3ccn[nH]3)cc2n1` [Example 104]: 390 nM; `Nc1nc(NCCCO)c2cc(F)c(-c3ccn[nH]3)cc2n1` [Example 24, 3-((2-amino-6-fluoro-7-(1H-pyrazol-5-yl)quinazolin-4-yl)amino)propan-1-ol]: 1680 nM. As for `Nc1nc(NCc2nccs2)c2ccc(-c3ccn[nH]3)cc2n1` [Example 28], it took 240 nM to reach a half-maximal effect (EC50). Compared with the last molecule, the EC50 is about 7-fold lower. Under `COCc1noc(CNc2nc(N)nc3cc(-c4ccn[nH]4)ccc23)n1` [Example 76] stands 760 nM. Molecule `Nc1nc(NCC2(CN3CCCC3)CC2)c2ccc(-c3cc[nH]n3)cc2n1` [Example 194] came in with an EC50 of 210 nM.

Turning to `Nc1nc(NC(CO)c2cc[nH]n2)c2ccc(-c3ccn[nH]3)cc2n1` (centres unmarked) [Example 33], a half-maximal effect (EC50) was put at 5390 nM. Next, `Nc1nc(NCc2cccc3[nH]ncc23)c2ccc(-c3ccn[nH]3)cc2n1` [Example 156]: 440 nM; `Nc1nc(NCCCCO)c2ccc(-c3ccn[nH]3)cc2n1` [Example 85]: 230 nM; `Nc1nc(NCc2cnn(-c3ccccc3)c2)c2ccc(-c3ccn[nH]3)cc2n1` [Example 169]: 730 nM.

`COC(CO)CNc1nc(N)nc2cc(-c3ccn[nH]3)ccc12` (single isomer, unassigned) [Example 203, 3-((2-amino-7-(1H-pyrazol-5-yl)quinazolin-4-yl)amino)-2-methoxypropan-1-ol] returned an EC50 of 450 nM. Next, `Nc1nc(NCCCCCO)c2ccc(-c3ccn[nH]3)cc2n1` [Example 86]: 220 nM; `C[C@H](O)CNc1nc(N)nc2cc(-c3ccn[nH]3)ccc12` [Example 36]: 710 nM. In turn, `Nc1nc(NCC2(CN3CCOCC3)CC2)c2ccc(-c3cc[nH]n3)cc2n1` [Example 195] gave an EC50 of 300 nM. Turning to `CO[C@@H]1C[C@@H](Nc2nc(N)nc3cc(-c4ccn[nH]4)ccc23)C[C@H]1O` (racemic) [Example 141, rac-(1R,2R,4S)-4-((2-amino-7-(1H-pyrazol-5-yl)quinazolin-4-yl)amino)-2-methoxycyclopentan-1-ol], the EC50 turned out to be 3650 nM. Under `CC(C)(O)C(O)CNc1nc(N)nc2cc(-c3ccn[nH]3)ccc12` (single isomer, unassigned) [Example 9, 1-((2-amino-7-(1H-pyrazol-5-yl)quinazolin-4-yl)amino)-3-methylbutane-2,3-diol] stands 1310 nM; under `COCC1(CNc2nc(N)nc3cc(-c4cc[nH]n4)ccc23)CC1` [Example 196], 230 nM; under `COCCN1CCCC1CNc1nc(N)nc2cc(-c3ccn[nH]3)ccc12` (centres unmarked) [Example 172], 2600 nM. `Nc1nc(NCCc2ccccn2)c2c(F)cc(-c3cc[nH]n3)cc2n1` [Example 122] registered an EC50 of 1110 nM.

As for `C[C@@H](O)CNc1nc(N)nc2cc(-c3ccn[nH]3)ccc12` [Example 1, (R)-1-((2-amino-7-(1H-pyrazol-5-yl)quinazolin-4-yl)amino)propan-2-ol], a half-maximal effect (EC50) was put at 450 nM. Next, `Nc1nc(N[C@@H]2CCOC2)c2ccc(-c3cc[nH]n3)cc2n1` [Example 121]: 1850 nM. Under `CCn1cc(CNc2nc(N)nc3cc(-c4ccn[nH]4)ccc23)cn1` [Example 168] stands 1280 nM; under `C[C@]1(O)CC[C@@H](Nc2nc(N)nc3cc(-c4ccn[nH]4)ccc23)CC1` [Example 90], 830 nM. Under `Nc1nc(NCC2CC2(F)F)c2ccc(-c3cc[nH]n3)cc2n1` (single isomer, unassigned) [Example 199, N4-((2,2-Difluorocyclopropyl)methyl)-7-(1H-pyrazol-3-yl)quinazoline-2,4-diamine] stands 80 nM; under `CCCC(CCO)Nc1nc(N)nc2cc(-c3ccn[nH]3)ccc12` (single isomer, unassigned) [Example 98, 3-((2-amino-7-(1H-pyrazol-5-yl)quinazolin-4-yl)amino)hexan-1-ol], 860 nM; under `Nc1nc(NCc2cccnn2)c2ccc(-c3ccn[nH]3)cc2n1` [Example 142], 510 nM. For the molecule `Nc1nc(NCc2cc[nH]n2)c2c(F)cc(-c3cc[nH]n3)cc2n1` [Example 124], the EC50 turned out to be 600 nM. Next, `Cc1cc(-c2cc[nH]n2)cc2nc(N)nc(NCCCO)c12` [Example 21, 3-((2-amino-5-methyl-7-(1H-pyrazol-3-yl)quinazolin-4-yl)amino)propan-1-ol]: 650 nM; `Cn1cnc(CNc2nc(N)nc3cc(-c4ccn[nH]4)ccc23)c1` [Example 146]: 8480 nM; `Nc1nc(N[C@@H]2COCC[C@H]2O)c2ccc(-c3ccn[nH]3)cc2n1` [Example 138]: 2140 nM. For `Nc1nc(N[C@@H]2CCC[C@@H]2O)c2ccc(-c3ccn[nH]3)cc2n1` [Example 30], the EC50 is 300 nM. Compared with the last molecule, the EC50 is about 7.1-fold lower.

The EC50 is the concentration at which the effect is half-maximal. Lower therefore signals a more potent agent.
